The text below walks through data of patent US8110588B2, “1,2,3-triazole derivatives useful as modulators of nicotinic acetylcholine receptors” (Neurosearch A/S, priority 2007, dated 2012).

The target of series [1] is T1, wild-type nAChR α7 receptors (Homo sapiens, UniProt P36544).
T1 construct: expressed in transfected cells; host or cells: Xenopus laevis oocytes
In words: Positive modulation of acetylcholine-induced currents, two-electrode voltage clamp in Xenopus oocytes. The class given is cell-based. Particulars: for maximal modulation of the acetylcholine (control) response (Imax) / EC50: 100 μM acetylcholine, nAChR α7 expressed in Xenopus laevis oocytes; for maximal modulation of the acetylcholine (control) response (Imax): (test-control)/control×100%; for EC50: clamped at −60 mV, compound 0.01-31.6 μM, read-out: EC50 for positive modulation of acetylcholine responses; for effect on acetylcholine-induced current amplitude: 0.01-31.6 μM compound applied 30 s before and during 100 μM acetylcholine application. As to the method:
In this example the positive modulation of wild-type nAChR α7 receptors by Compound 1 (FIGS. 1A and 1B) and Compound 3 (FIGS. 2A and 2B) was determined using nAChR α7 receptors heterologously expressed in Xenopus laevis oocytes.
The electrical current through the nAChR α7 channel was measured using conventional two-electrode voltage clamp and nAChR α7 currents were activated by applying pulses of agonist-containing solution onto the nAChR α7 expressing oocyte. In brief, the oocytes were placed in a recording chambers and continuously superfused with an Oocyte Ringer (OR) solution containing 90 mM NaCl, 2.5 mM KCl, 2.5 mM CaCl2, 1 mM MgCl2 and 5 mM HEPES (pH adjusted to 7.4). The oocytes were clamped at −60 mV and currents were induced by applying 20 s pulses of 100 μM acetylcholine dissolved in OR. The intervals between the acetylcholine applications were 5 minutes, during which the oocytes were washed with OR. The first three applications were control applications to insure a constant response level of 100 μM acetylcholine.
The positive modulation in the presence of Compound 1 and Compound 3 was calculated as (test-control)/control×100% and the concentration response curve for this positive modulation was fitted to the sigmoidal logistic equation: I=Imax/(1+(EC50/[compound])^n), where Imax represents the maximal modulation of the control response, EC50 is the concentration causing a half maximal response, and n is the slope coefficient.
In general terms: Two-electrode voltage clamp holds a large cell at a set potential and records current.

T1 sequence (P36544 23-502): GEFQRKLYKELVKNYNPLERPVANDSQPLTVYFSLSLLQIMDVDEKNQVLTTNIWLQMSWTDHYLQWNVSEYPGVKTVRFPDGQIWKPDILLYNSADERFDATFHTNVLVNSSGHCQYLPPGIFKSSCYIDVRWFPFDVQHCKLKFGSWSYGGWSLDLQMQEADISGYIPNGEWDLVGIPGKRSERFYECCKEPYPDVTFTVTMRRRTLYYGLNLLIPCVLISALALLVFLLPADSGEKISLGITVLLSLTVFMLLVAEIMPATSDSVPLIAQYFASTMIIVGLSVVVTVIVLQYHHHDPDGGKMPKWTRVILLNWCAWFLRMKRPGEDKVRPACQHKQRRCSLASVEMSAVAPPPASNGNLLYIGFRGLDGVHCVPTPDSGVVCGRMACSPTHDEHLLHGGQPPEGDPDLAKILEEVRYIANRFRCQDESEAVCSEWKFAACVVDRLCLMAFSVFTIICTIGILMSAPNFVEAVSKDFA

By melting point is commonly meant the temperature of the solid-liquid transition. As to `COc1ccc(-n2nnc(-c3ccc(Cl)cc3F)c2N)cc1` [Compound 27, 5-(4-Chloro-2-fluoro-phenyl)-3-(4-methoxy-phenyl)-3H-[1,2,3]triazol-4-ylamine], the melting point was 147.9 to 149.5 °C.
Same read-out and setting: for `COc1ccc(Cl)cc1-c1nnn(-c2ccc(C(F)(F)F)cc2Cl)c1N` [Compound 2, 5-(5-Chloro-2-methoxy-phenyl)-3-(2-chloro-4-trifluoromethyl-phenyl)-3H-[1,2,3]triazol-4-ylamine] the value was 152.8 to 153.3 °C; for `Nc1c(-c2ccc(C(F)(F)F)cc2F)nnn1-c1ccc(S(N)(=O)=O)cc1` [Compound 13, 4-[5-Amino-4-(2-fluoro-4-trifluoromethyl-phenyl)-[1,2,3]triazol-1-yl]-benzenesulfonamide], 183.8 to 185.2 °C; for `Nc1c(-c2ccc(-c3nnco3)cc2)nnn1-c1ccc(C(F)(F)F)cc1F` [Compound 10, 3-(2-Fluoro-4-trifluoromethyl-phenyl)-5-(4-[1,3,4]oxadiazol-2-yl-phenyl)-3H-[1,2,3]triazol-4-ylamine], 184.6 to 186.1 °C.
The compound `CC(=O)Nc1ccc(-c2nnn(-c3ccc(C(F)(F)F)cc3F)c2N)cc1` [Compound 11, N-{4-[5-Amino-1-(2-fluoro-4-trifluoromethyl-phenyl)-1H-[1,2,3]triazol-4-yl]-phenyl}-acetamide] displayed a melting point of 114.8 to 116.2 °C.
For `COc1ccc(-n2nnc(-c3ccc(F)cc3Cl)c2N)cc1` [Compound 25, 5-(2-Chloro-4-fluoro-phenyl)-3-(4-methoxy-phenyl)-3H-[1,2,3]triazol-4-ylamine], the melting point lay within 175 to 176.8 °C.
Turning to `Nc1c(-c2ccc(Cl)cc2)nnn1-c1ccc(C(F)(F)F)cc1F` [Compound 18, 5-(4-Chloro-phenyl)-3-(2-fluoro-4-trifluoromethyl-phenyl)-3H-[1,2,3]triazol-4-ylamine], the melting point is 169.9 to 170.2 °C.
Take `COc1ccc(-n2nnc(-c3ccc(Cl)cc3Cl)c2N)cc1` [Compound 6, 5-(2,4-Dichloro-phenyl)-3-(4-methoxy-phenyl)-3H-[1,2,3]triazol-4-ylamine]: the melting point fell in the range of 154.6 to 163.9 °C.
Same read-out and setting: for `Nc1c(-c2ccc(OC(F)(F)F)cc2)nnn1-c1ccc(C(F)(F)F)cc1F` [Compound 19, 3-(2-Fluoro-4-trifluoromethyl-phenyl)-5-(4-trifluoromethoxy-phenyl)-3H-[1,2,3]triazol-4-ylamine] the value was 134.2 to 134.9 °C; for `COc1ccc(-n2nnc(-c3ccc(F)cc3F)c2N)cc1` [Compound 24, 5-(2,4-Difluoro-phenyl)-3-(4-methoxy-phenyl)-3H-[1,2,3]triazol-4-ylamine], 152 to 156.5 °C.
With `Nc1c(-c2cc(Cl)ccc2O)nnn1-c1ccc(Cl)cc1Cl` [Compound 8, 2-[5-Amino-1-(2,4-dichloro-phenyl)-1H-[1,2,3]triazol-4-yl]-4-chloro-phenol], the melting point is 131.3 to 135.6 °C.
Same read-out and setting: for `Nc1c(-c2ccc(C(F)(F)F)cc2F)nnn1-c1ccc(O)cc1` [Compound 17, 4-[5-Amino-4-(2-fluoro-4-trifluoromethyl-phenyl)-[1,2,3]triazol-1-yl]-phenol] the value was 176.2 to 177.5 °C; for `Nc1c(-c2ccc(O)cc2)nnn1-c1ccc(C(F)(F)F)cc1F` [Compound 15, 4-[5-Amino-1-(2-fluoro-4-trifluoromethyl-phenyl)-1H-[1,2,3]triazol-4-yl]-phenol], 163.5 to 165.2 °C; for `COc1ccc(-n2nnc(-c3ccc(Cl)c(Cl)c3)c2N)cc1` [Compound 26, 5-(3,4-Dichloro-phenyl)-3-(4-methoxy-phenyl)-3H-[1,2,3]triazol-4-ylamine], 189.9 to 191.3 °C.
Same read-out and setting: to `COc1ccc(Cl)cc1-c1nnn(-c2ccc(Cl)cc2Cl)c1N` [Compound 4, 5-(5-Chloro-2-methoxy-phenyl)-3-(2,4-dichloro-phenyl)-3H-[1,2,3]triazol-4-ylamine] belongs 153.5 to 154.7 °C.
By EC50 is commonly meant the midpoint of the concentration-response curve. Compound `COc1ccc(-c2nnn(-c3ccc(C(F)(F)F)cc3Cl)c2N)cc1` [Compound 3, 3-(2-Chloro-4-trifluoromethyl-phenyl)-5-(4-methoxy-phenyl)-3H-[1,2,3]triazol-4-ylamine] displayed a melting point of 130 to 130.7 °C. Besides, in series [1], the “maximal modulation of the acetylcholine (control) response (Imax)” value is on record as 563%, the EC50 came out at 1.7 µM and the “effect on acetylcholine-induced current amplitude” value is recorded as “robust increase”.
Regarding `Nc1ccc(-c2nnn(-c3ccc(C(F)(F)F)cc3F)c2N)cc1` [Compound 12, 5-(4-Amino-phenyl)-3-(2-fluoro-4-trifluoromethyl-phenyl)-3H-[1,2,3]triazol-4-ylamine], the melting point is 163.6 to 165 °C.
In turn, `Nc1c(-c2ccc(O)cc2)nnn1-c1ccc(C(F)(F)F)cc1Cl` [Compound 21, 4-[5-Amino-1-(2-chloro-4-trifluoromethyl-phenyl)-1H-[1,2,3]triazol-4-yl]-phenol] displayed a melting point of 161 to 162.3 °C.
Compound `COc1ccc(-n2nnc(-c3ccc(Cl)cc3C(F)(F)F)c2N)cc1` [Compound 23, 5-(4-Chloro-2-trifluoromethyl-phenyl)-3-(4-methoxy-phenyl)-3H-[1,2,3]triazol-4-ylamine] returned a melting point of 159.2 to 160.2 °C.
`COc1ccc(-c2nnn(-c3ccc(Cl)cc3Cl)c2N)cc1` [Compound 1, 3-(2,4-Dichloro-phenyl)-5-(4-methoxy-phenyl)-3H-[1,2,3]triazol-4-ylamine] came in with a melting point of 149.2 to 150.7 °C. In addition, in series [1], the “maximal modulation of the acetylcholine (control) response (Imax)” value was 561%, the EC50 came out at 4.9 µM and the “effect on acetylcholine-induced current amplitude” value was “robust increase”.
As to `COc1ccc(-n2nnc(-c3ccc(C(F)(F)F)cc3F)c2N)cc1` [Compound 16, 5-(2-Fluoro-4-trifluoromethyl-phenyl)-3-(4-methoxy-phenyl)-3H-[1,2,3]triazol-4-ylamine], the melting point lay within 164.6 to 165.5 °C.
As to `Nc1c(-c2cc(Cl)ccc2O)nnn1-c1ccc(C(F)(F)F)cc1Cl` [Compound 9, 2-[5-Amino-1-(2-chloro-4-trifluoromethyl-phenyl)-1H-[1,2,3]triazol-4-yl]-4-chloro-phenol], the melting point lay in the range of 74.5 to 77.5 °C.
Regarding `COc1ccc(-c2nnn(-c3cc(C)on3)c2N)cc1` [Compound 7, 5-(4-Methoxy-phenyl)-3-(5-methyl-isoxazol-3-yl)-3H-[1,2,3]triazol-4-yl amine], the melting point fell in the range of 136.3 to 141.2 °C.
Regarding `COc1ccc(-c2nnn(-c3ccc(F)cc3Cl)c2N)cc1` [Compound 5, 3-(2-Chloro-4-fluoro-phenyl)-5-(4-methoxy-phenyl)-3H-[1,2,3]triazol-4-ylamine], the melting point fell in the range of 136.3 to 141.2 °C.
Still for that read-out and setting: to `COc1ccc(-c2nnn(-c3c(Cl)cc(Cl)cc3I)c2N)cc1` [Compound 22, 3-(2,4-Dichloro-6-iodo-phenyl)-5-(4-methoxy-phenyl)-3H-[1,2,3]triazol-4-ylamine] belongs 72.5 to 73.6 °C.
